In the NIST ThermoML archive (doi:10.1016/j.fluid.2018.08.016):
± gives the expanded uncertainty stated by the source.

Legend:
[1] = for thermal conductivity: 101.33 kPa, Modified transient plane source method; for Normal melting temperature: Crystal 1, DTA; for Triple point temperature: DSC
[2] = Molar enthalpy of transition or fusion; details: DSC

| Structure (SMILES) | thermal conductivity ([1]; 297.6 K, Crystal 2) [W/m/K] | thermal conductivity ([1]; 302.4 K, Crystal 2) [W/m/K] | thermal conductivity ([1]; 333 K, Liquid) [W/m/K] | thermal conductivity ([1]; 337.7 K, Liquid) [W/m/K] | thermal conductivity ([1]; 353 K, Liquid) [W/m/K] | Normal melting temperature [1] [°C] | Triple point temperature ([1]; Crystal 2) [K] | Molar enthalpy of transition or fusion ([2]; Crystal 1) [kcal/mol] | Molar enthalpy of transition or fusion ([2]; Crystal 2) [kcal/mol] | thermal conductivity ([1]; 297.7 K, Crystal 2) [W/m/K] | thermal conductivity ([1]; 302.3 K, Crystal 2) [W/m/K] | thermal conductivity ([1]; 348 K, Liquid) [W/m/K] | thermal conductivity ([1]; 343.1 K, Liquid) [W/m/K] | other results |
| --- | --- | --- | --- | --- | --- | --- | --- | --- | --- | --- | --- | --- | --- | --- |
| CCCCCCCCCCCCCCCCCCCCCC [docosane] | 0.624 ± 0.039 | 0.668 ± 0.041 | 0.146 ± 0.005 | 0.145 ± 0.005 | 0.142 ± 0.005 | 43.5 ± 0.5 | 315.6 ± 0.8 | 9.92 ± 0.359 | 6.92 ± 0.263 | – | – | – | – | thermal conductivity ([1]; 307.9 K, Crystal 2): 0.637 ± 0.04 W/m/K; thermal conductivity ([1]; 318.1 K, Liquid): 0.151 ± 0.005 W/m/K; thermal conductivity ([1]; 323 K, Liquid): 0.15 ± 0.005 W/m/K; thermal conductivity ([1]; 328.1 K, Liquid): 0.148 ± 0.005 W/m/K; thermal conductivity ([1]; 343 K, Liquid): 0.144 ± 0.005 W/m/K; thermal conductivity ([1]; 347.9 K, Liquid): 0.143 ± 0.005 W/m/K |
| CCCCCCCCCCCC [dodecane] | – | – | – | 0.13 ± 0.005 | – | – | – | – | – | – | – | – | – | thermal conductivity ([1]; 318.2 K, Liquid): 0.135 ± 0.004 W/m/K; thermal conductivity ([1]; 323.2 K, Liquid): 0.134 ± 0.005 W/m/K; thermal conductivity ([1]; 328.1 K, Liquid): 0.133 ± 0.005 W/m/K; thermal conductivity ([1]; 333.1 K, Liquid): 0.131 ± 0.005 W/m/K; thermal conductivity ([1]; 343.2 K, Liquid): 0.128 ± 0.005 W/m/K; thermal conductivity ([1]; 347.9 K, Liquid): 0.127 ± 0.005 W/m/K; thermal conductivity ([1]; 352.8 K, Liquid): 0.127 ± 0.005 W/m/K |
| CCCCCCCCCCCCCCCCCCCCCCCCCCCCCCCC [dotriacontane] | – | – | – | – | – | 69 ± 0.5 | 338.1 ± 0.8 | 18 ± 0.693 | 9.3 ± 0.359 | 0.574 ± 0.034 | 0.574 ± 0.036 | 0.152 ± 0.006 | – | thermal conductivity ([1]; 307.5 K, Crystal 2): 0.585 ± 0.036 W/m/K; thermal conductivity ([1]; 312.8 K, Crystal 2): 0.607 ± 0.038 W/m/K; thermal conductivity ([1]; 318 K, Crystal 2): 0.585 ± 0.037 W/m/K; thermal conductivity ([1]; 323.1 K, Crystal 2): 0.561 ± 0.035 W/m/K; thermal conductivity ([1]; 328 K, Crystal 2): 0.588 ± 0.036 W/m/K; thermal conductivity ([1]; 332.6 K, Crystal 2): 0.621 ± 0.038 W/m/K; thermal conductivity ([1]; 343 K, Liquid): 0.153 ± 0.006 W/m/K; thermal conductivity ([1]; 353.1 K, Liquid): 0.149 ± 0.005 W/m/K |
| CCCCCCCCCCCCCCCCCCCCCCCCCC [hexacosane] | 0.499 ± 0.031 | 0.524 ± 0.031 | 0.151 ± 0.005 | – | – | 55.7 ± 0.5 | 325.7 ± 0.8 | 13.2 ± 0.837 | 7.37 ± 0.287 | – | – | 0.148 ± 0.005 | 0.149 ± 0.006 | thermal conductivity ([1]; 307.8 K, Crystal 2): 0.484 ± 0.032 W/m/K; thermal conductivity ([1]; 312.7 K, Crystal 2): 0.513 ± 0.032 W/m/K; thermal conductivity ([1]; 318.5 K, Crystal 2): 0.574 ± 0.036 W/m/K; thermal conductivity ([1]; 337.8 K, Liquid): 0.15 ± 0.005 W/m/K; thermal conductivity ([1]; 353.1 K, Liquid): 0.147 ± 0.005 W/m/K |
| CCCCCCCCCCCCCCCCCCCCCCCCCCCC [octacosane] | – | 0.489 ± 0.03 | – | 0.152 ± 0.005 | 0.149 ± 0.005 | 60.2 ± 1 | 330.4 ± 0.8 | 15.1 ± 0.55 | 8.39 ± 0.311 | 0.514 ± 0.031 | – | 0.149 ± 0.005 | 0.151 ± 0.005 | thermal conductivity ([1]; 308 K, Crystal 2): 0.471 ± 0.029 W/m/K; thermal conductivity ([1]; 312.7 K, Crystal 2): 0.469 ± 0.028 W/m/K; thermal conductivity ([1]; 318.6 K, Crystal 2): 0.473 ± 0.031 W/m/K; thermal conductivity ([1]; 323.4 K, Crystal 2): 0.505 ± 0.032 W/m/K |
| CCCCCCCCCCCCCCCCCCCCCCCC [tetracosane] | 0.594 ± 0.036 | – | 0.149 ± 0.005 | – | 0.145 ± 0.006 | 50.0 ± 0.5 | 320.8 ± 0.8 | 12.2 ± 1.27 | 7.41 ± 0.43 | – | 0.545 ± 0.033 | 0.146 ± 0.005 | 0.146 ± 0.005 | thermal conductivity ([1]; 307.7 K, Crystal 2): 0.545 ± 0.033 W/m/K; thermal conductivity ([1]; 312.9 K, Crystal 2): 0.603 ± 0.036 W/m/K; thermal conductivity ([1]; 323.1 K, Liquid): 0.152 ± 0.005 W/m/K; thermal conductivity ([1]; 328 K, Liquid): 0.151 ± 0.005 W/m/K; thermal conductivity ([1]; 337.6 K, Liquid): 0.148 ± 0.005 W/m/K |
| CCCCCCCCCCCCCCCCCCCCCCCCCCCCCC [triacontane] | – | – | – | – | – | 64.0 ± 1.5 | 334.2 ± 0.8 | 16.7 ± 0.598 | 9.03 ± 0.335 | 0.616 ± 0.038 | 0.603 ± 0.036 | 0.152 ± 0.005 | 0.153 ± 0.005 | thermal conductivity ([1]; 307.8 K, Crystal 2): 0.556 ± 0.034 W/m/K; thermal conductivity ([1]; 312.6 K, Crystal 2): 0.612 ± 0.037 W/m/K; thermal conductivity ([1]; 318.5 K, Crystal 2): 0.559 ± 0.035 W/m/K; thermal conductivity ([1]; 323.3 K, Crystal 2): 0.514 ± 0.033 W/m/K; thermal conductivity ([1]; 328 K, Crystal 2): 0.536 ± 0.034 W/m/K; thermal conductivity ([1]; 353.5 K, Liquid): 0.151 ± 0.005 W/m/K |
